Reference: US20250051375A1, “ANTI-HIV COMPOUNDS” (Gilead Sciences, Inc., priority 2023, published 2025)
Converted amounts (≈) assume the structure as drawn. Like-named read-outs stand apart in the source and are kept apart here.

Key:
HIV-1 IIIB strain = assay: MT-4 HIV Wild Type Virus Infection Assay (IIIB Virus); assay type: cell-based; settings: Human immunodeficiency virus 1, IIIB, MT4, 120 h, MT-4 cells acutely infected with HIV-1 IIIB, 5 day incubation, Cell-titer glo
Experimental: Test compounds and controls were serially diluted and spotted in replicate into 384 well black assay plates via acoustic transfer (Echo). MT-4 cells were grown in batch, centrifuged and resuspended into fresh CCM media (RPMI w/10% FBS, 1% PS) at 2×10^6 cells/ml. MT-4 cells were acutely infected with HIV-1 IIIB strain. The size of each infection mix was scaled by the number of sample plates to be tested. Each infection mix was transferred into 5 mL closed tubes and nutated rapidly on a shaker at 37° C. incubator for 1 hour. The infection mixes were then diluted 25× in fresh cell culture media and then added to assay plates at 40 μL per well using a ViaFlo 384 pipettor. After 5 day incubation at 37° C. in a CO2 incubator, assay plates were processed with Cell-titer glo reagent using a ViaFlo 384 with an addition/mixing program. Plates were read immediately on Envision reader. Assay signals were plotted and dose response curves generated to determine individual compound EC50s.

PBS Stability Assay = assay type: physicochemical; settings: buffer, pH 7.4, 2 μM, phosphate buffered saline pH 7.4; read-out: PBS T½
Experimental: Reagents. Stock solutions of test compounds in dimethyl sulfoxide (DMSO) having a final concentration of 10 mM were prepared and used in all experiments. Sekisui XenoTech (Kansas City, KS) provided pooled intestinal S9 fractions. All other chemicals were purchased from Sigma-Aldrich (St. Louis, MO) or VWR (West Chester, PA). Internal Standard/Quench (IS/Q) used to stop reactions was 100 nM labetalol in (by volume) formic acid (1%) and acetonitrile (99%).
PBS Stability Assay: For each test compound, an aliquot of the test compound was added to phosphate buffered saline (137 mM NaCl, 2.7 mM KCl, 10 mM phosphate buffer), pH 7.4. The incubation was initiated by the addition of the test compound to PBS to a final concentration of 2 μM. At 0, 10, 20, 30, 60 and 120 min, 25 μL aliquots of the incubation mixture were transferred to plates containing 225 μl of IS/Q solution. After quenching, the plates were centrifuged at 3000×g for 30 minutes. 150 μL aliquots of each supernatant were transferred to new plates and 150 μL water was added. Aliquots (10 μL) of the prepared samples were analyzed on a Thermo Q-Exactive mass spectrometer as described below.
Liquid Chromatography-Mass Spectrometry: Quantification of test compounds and control substrate was performed by analyte/internal standard peak area ratio (PAR) values measured on a Thermo Q-Exactive mass spectrometer coupled to a Dionex UltiMate 3000 HPLC with a Leap Technologies HTC PAL autosampler. The column used for analysis was a Thermo Scientific Hypersil GOLD (1.9 μm particle size, 50×2.1 mm). Mobile phase A consisted of 0.1% (v/v) formic acid in water. Mobile phase B consisted of 0.1% (v/v) formic acid in acetonitrile. Elution of analytes was achieved by a series of linear gradients varying the proportions of A and B. The mass spectrometer was calibrated on a weekly basis and mass tolerance of 5 ppm was used.
Data Analysis. Metabolic stabilities were determined by measuring the rates of disappearance of test compound and positive control substrate. Data (% of substrate remaining) were plotted on a semi-log scale and fitted using an exponential decline model:
where • Ct% of substrate remaining at time=t • C0% of substrate remaining at time=0 • t time • T½ half-life • The Half-life (T½) is determined by the following equation:
[formula] • Assuming a first-order reaction, the slope (k) is extrapolated from the aforementioned plotted data.

[1] = target: bovine intestinal alkaline phosphatase (Bos taurus (Bovine), UniProt P19111); assay: BiALP: conversion by bovine intestinal alkaline phosphatase; assay type: in vitro ADME; settings: 2 μM substrate, 100 ng/mL iALP, Tris pH 7.8, 37° C., 60 minutes; for [Intermediate A] or [Amprenavir]: parent formed
Experimental: Fosamprenavir and its parent compound (amprenavir) were purchased from Millipore Sigma (St. Louis, MO). Test compounds, Intermediate A, fosamprenavir, and amprenavir were each separately dissolved in dimethyl sulfoxide (DMSO) at a concentration of 10 mM to form stock solutions.
All other chemicals were purchased from Millipore Sigma (St. Louis, MO) and Thermo Fisher Scientific (Waltham, MA). […] Internal Standard/Quench (IS/Q) was 100 nM labetalol in 99:1 (v/v) acetonitrile/formic acid.
Incubations were performed with Tris buffer alone (0.1 M Tris-HCl pH 7.8 containing 1 mM MgCl2 and 1 mM ZnCl2) or the same Tris buffer further containing 100 ng/mL iALP (0.01 units/mL). Triplicate 100 μL aliquots of Tris buffer±iALP were warmed to 37° C. and the reactions were initiated by the addition of the test compound or fosamprenavir to obtain final substrate concentrations of 2 μM. Incubations were then continued at 37° C. At 60 minutes, reactions were terminated by the addition of 200 μl of IS/Q and mixed by pipette. […] Aliquots (150 μL) of the supernatants were transferred to fresh plates containing 150 μL of water. Aliquots (15 μL) of the diluted supernatants were analyzed by mass spectrometry as described below.
Quantification of the test compounds and fosamprenavir was performed by analyte/internal standard peak area ratios (PARs) with comparison to 2 μM Intermediate A and amprenavir, respectively. The LC instrumentation consisted of a Thermo Scientific Vanquish pump and a Thermo Hypersil Gold column (1.9 μm particle size, 2.1×50 mm). […] The MS instrument was a Thermo Q Exactive™ Plus operating in positive ionization mode with mass tolerance of 5 ppm and calibrated on a twice weekly basis.

Solubility in FaSSIF = settings: 23 °C, pH 6.5, fassif, thermodynamic from solid
Experimental: Buffer Preparation: Fasted State Simulated Intestinal Fluid (FaSSIF): Simulated Intestinal Fluid (SIF) powder containing a complex of Taurocholate and Lecithin (4:1 molar ratio) was obtained from Biorelevant. 0.056 g of SIF powder was added to 25 mL of buffer, adjusted to pH 6.5, containing 0.011 g of NaOH (pellets), 0.099 g of NaH2PO4 (monohydrate), and 0.155 g of NaCl. The buffer was prepared with HPLC H2O. The SIE powder was stirred until completely dissolved and allowed to stand for 2 hours.
Test Compounds: Each test compound was placed in a vial containing approximately 7 mg of material. Aliquots were weighed out for each assay media at each time point to be analyzed. The buffer was added to each vial such that the final dose concentration of 5 mg/mL was achieved. Samples were then vortexed for 5-10 seconds.
The plate was sealed with a pierceable heat seal and analyzed by HPLC-UV.

Chain of bovine intestinal alkaline phosphatase (P19111 20-506): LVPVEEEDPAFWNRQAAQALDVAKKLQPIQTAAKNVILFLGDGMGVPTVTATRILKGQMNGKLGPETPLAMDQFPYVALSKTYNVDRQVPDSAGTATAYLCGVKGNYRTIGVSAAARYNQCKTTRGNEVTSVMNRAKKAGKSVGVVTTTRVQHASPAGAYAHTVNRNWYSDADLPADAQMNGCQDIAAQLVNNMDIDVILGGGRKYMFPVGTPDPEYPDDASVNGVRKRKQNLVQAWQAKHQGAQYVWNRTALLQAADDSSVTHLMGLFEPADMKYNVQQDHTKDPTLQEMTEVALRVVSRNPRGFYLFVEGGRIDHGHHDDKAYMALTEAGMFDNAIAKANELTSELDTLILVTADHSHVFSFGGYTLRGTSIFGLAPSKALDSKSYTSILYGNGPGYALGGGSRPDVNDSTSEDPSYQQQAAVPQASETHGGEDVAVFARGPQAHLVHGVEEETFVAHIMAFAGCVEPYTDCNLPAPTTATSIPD

Row | Compound | [Compound] [1] | EC50 (HIV-1 IIIB strain) | solubility at 2 h (Solubility in FaSSIF) | further results
1 | COC(=O)N[C@H](C(=O)N[C@@H](Cc1ccc(C#Cc2cnc(N3CC4CCC(C3)N4C3COC3)nc2)cc1)[C@H](CN(Cc1c(F)cc(-c2ccn(C(F)F)n2)cc1F)NC(=O)[C@@H](NC(=O)OC)C(C)(C)C(F)(F)F)OC(=O)OCOC(=O)CC(C)(C)c1c(C)cc(C)cc1OP(=O)(O)O)C(C)(C)C(F)(F)F [Example 12] |  |  |  | EC50 (HIV-1 IIIB strain; read-out: EC50): 23.4 nM; half-life at 2 μM (PBS Stability Assay): 4.92 h
2 | COC(=O)N[C@H](C(=O)N[C@@H](Cc1ccc(C#Cc2ccc(N3CC4CCC(C3)N4C3COC3)nc2)cc1)[C@H](CN(Cc1c(F)cc(-c2ccn(C(F)F)n2)cc1F)NC(=O)[C@@H](NC(=O)OC)C(C)(C)C(F)(F)F)OC(=O)CC(C)(C)c1c(CC(=O)NC(CC(=O)O)C(=O)O)cc(C)cc1CP(=O)(O)O)C(C)(C)C(F)(F)F (stereo partly shown) [Example 23] | 2107.1 nM |  |  | 
3 | COC(=O)N[C@H](C(=O)N[C@@H](Cc1ccc(C#Cc2cnc(N3CC4CCC(C3)N4C3COC3)nc2)cc1)[C@H](CN(Cc1c(F)cc(-c2ccn(C(F)F)n2)cc1F)NC(=O)[C@@H](NC(=O)OC)C(C)(C)C(F)(F)F)OC(=O)CC(C)(C)c1c(CC(=O)N([C@H](C)C(=O)O)S(=O)(=O)O)cc(C)cc1OP(=O)(O)O)C(C)(C)C(F)(F)F [Example 32] | 1435.5 nM |  |  | 
4 | COC(=O)N[C@H](C(=O)N[C@@H](Cc1ccc(C#Cc2cnc(N3CC4CCC(C3)N4C3COC3)nc2)cc1)[C@H](CN(Cc1c(F)cc(-c2ccn(C(F)F)n2)cc1F)NC(=O)[C@@H](NC(=O)OC)C(C)(C)C(F)(F)F)OC(=O)CC(C)(C)c1c(CC(=O)N([C@H](C)C(=O)O)S(=O)(=O)O)cccc1OP(=O)(O)O)C(C)(C)C(F)(F)F [Example 39] | 1310.3 nM |  |  | 
5 | COC(=O)N[C@H](C(=O)N[C@@H](Cc1ccc(C#Cc2cnc(N3CC4CCC(C3)N4C3COC3)nc2)cc1)[C@H](CN(Cc1c(F)cc(-c2ccn(C(F)F)n2)cc1F)NC(=O)[C@@H](NC(=O)OC)C(C)(C)C(F)(F)F)OC(=O)OCOC(=O)CC(C)(C)c1c(CC(=O)N2CCN(CC(=O)O)CC2)cc(C)cc1OP(=O)(O)O)C(C)(C)C(F)(F)F [Example 77] | 2259 nM | 8.3 nM | 2760 µg/mL (≈ 1640 µM) | 
6 | COC(=O)N[C@H](C(=O)N[C@@H](Cc1ccc(C#Cc2cnc(N3CC4CCC(C3)N4C3COC3)nc2)cc1)[C@H](CN(Cc1c(F)cc(-c2ccn(C(F)F)n2)cc1F)NC(=O)[C@@H](NC(=O)OC)C(C)(C)C(F)(F)F)OC(=O)OCOC(=O)CC(C)(C)c1c(CC(=O)N2CCCC2C(=O)O)cc(C)cc1OP(=O)(O)O)C(C)(C)C(F)(F)F (stereo partly shown) [Example 78] | 2070.6 nM | 3.1 nM | 4390 µg/mL (≈ 2650 µM) | 
7 | COC(=O)N[C@H](C(=O)N[C@@H](Cc1ccc(C#Cc2cnc(N3CC4CCC(C3)N4C3COC3)nc2)cc1)[C@H](CN(Cc1c(F)cc(-c2ccn(C(F)F)n2)cc1F)NC(=O)[C@@H](NC(=O)OC)C(C)(C)C(F)(F)F)OC(=O)CC(C)(C)c1c(CC(=O)N2CCN(S(C)(=O)=O)CC2)cc(C)cc1OP(=O)(O)O)C(C)(C)C(F)(F)F [Example 80, (5S,10S,11S,14S)-8-(4-(1-(difluoromethyl)-1H-pyrazol-3-yl)-2,6-difluorobenzyl)-11-(4-((2-(8-(oxetan-3-yl)-3,8-diazabicyclo[3.2.1]octan-3-yl)pyrimidin-5-yl)ethynyl)benzyl)-3,6,13,16-tetraoxo-5,14-bis(1,1,1-trifluoro-2-methylpropan-2-yl)-2,17-dioxa-4,7,8,12,15-pentaazaoctadecan-10-yl 3-methyl-3-(4-methyl-2-(2-(4-(methylsulfonyl)piperazin-1-yl)-2-oxoethyl)-6-(phosphonooxy)phenyl)butanoate] | 2507.9 nM | 735 nM | < 1000 µg/mL | biALP Intermediate A or [Amprenavir] (% of total) [1]: 0 % of total; [Intermediate A] or [Amprenavir] [1]: 0 nM
8 | COC(=O)N[C@H](C(=O)N[C@@H](Cc1ccc(C#Cc2cnc(N3CC4CCC(C3)N4C3COC3)nc2)cc1)[C@H](CN(Cc1c(F)cc(-c2ccn(C(F)F)n2)cc1F)NC(=O)[C@@H](NC(=O)OC)C(C)(C)C(F)(F)F)OC(=O)CC(C)(C)c1c(CC(=O)N2CCN(S(N)(=O)=O)CC2)cc(C)cc1OP(=O)(O)O)C(C)(C)C(F)(F)F [Example 81, (5S,10S,11S,14S)-8-(4-(1-(difluoromethyl)-1H-pyrazol-3-yl)-2,6-difluorobenzyl)-11-(4-((2-(8-(oxetan-3-yl)-3,8-diazabicyclo[3.2.1]octan-3-yl)pyrimidin-5-yl)ethynyl)benzyl)-3,6,13,16-tetraoxo-5,14-bis(1,1,1-trifluoro-2-methylpropan-2-yl)-2,17-dioxa-4,7,8,12,15-pentaazaoctadecan-10-yl 3-methyl-3-(4-methyl-2-(2-oxo-2-(4-sulfamoylpiperazin-1-yl)ethyl)-6-(phosphonooxy)phenyl)butanoate] | 2385.2 nM | 627 nM | < 1000 µg/mL | biALP Intermediate A or [Amprenavir] (% of total) [1]: 0 % of total; [Intermediate A] or [Amprenavir] [1]: 0 nM
9 | CC(C)CN(C[C@@H](OP(=O)(O)O)[C@H](Cc1ccccc1)NC(=O)O[C@H]1CCOC1)S(=O)(=O)c1ccc(N)cc1 [Fosamprenavir, fosamprenavir, reference compound] | 1605 nM |  |  | 
